Assay: Capture of nonanal applied to skin after treatment with the cosmetic composition
Format: in vivo
Settings: composition with 10% by weight APTES, pH 9 (lactic acid), 4 mg per cm^2 on skin, left to dry, then nonanal applied
Method: A cosmetic composition containing 10% by weight of APTES sold under the name Dow Corning is prepared. The pH of the composition is brought to 9 by adding lactic acid. The cosmetic composition is then applied to the skin in a proportion of 4 mg per cm^2 over the whole of the body, and then left to dry. Nonanal, which is an aldehyde that can be formed following the action of ozone on sebum, is then applied to the skin. An aqueous cosmetic composition containing 1.4% by weight of active materials of a vinylformamide/vinylformamine copolymer sold under the name Lupamine 9030 by the company BASF is prepared. It is applied to the skin in a proportion of 4 mg per cm^2 over the whole of the body, and then left to dry. Nonanal, which is a compound structurally close to those which are formed following the action of ozone on sebum, is then applied to the skin.

CCO[Si](CCCN)(OCC)OCC [APTES, γ-aminopropyltriethoxysilane]
trapping of nonanal in the skin: trapped
